Results: the CheMixHub viscosity set
“And” between values parts separate entries of the source, which are not always exact repeats. Equal values may be shown once.

Assays:
[1] = xn = mol fraction of the nth substance listed

CCOC(=O)Cn1cc[n+](C)c1.[Cl-]
Conditions	viscosity [mPa·s]
298.15 K, 101 kPa	348.6

CSC
Conditions	viscosity [mPa·s]
293.15 K, 101 kPa	0.307

C1CCC(C2CCCCC2)CC1
102 kPa
Conditions	viscosity [mPa·s]
293.15 K	4.06
303.15 K	3.18
313.15 K	2.56
323.15 K	2.1

CCOC(=O)C(Cl)(Cl)Cl
Conditions	viscosity [mPa·s]
323.15 K, 101 kPa	1.037

CCCCO
Conditions	viscosity
293.15 K, 100 kPa	2.873 mPa·s and 2.61 mPa·s and 2.868 mPa·s
293.15 K, 101 kPa	2.929 mPa·s and 2.868 mPa·s
293.15 K, 101.33 kPa	2.9 mPa·s
298 K, 101.3 kPa	2.507 mPa·s
298 K, 101.33 kPa	2.52 mPa·s
298.15 K, 101.3 kPa	2.442 mPa·s
303 K, 101.33 kPa	2.095 mPa·s
303.15 K, 101 kPa	2.121 mPa·s and 2.002 mPa·s and 2.12 mPa·s
303.15 K, 101.3 kPa	2.129 mPa·s
308 K, 101.3 kPa	1.903 mPa·s
308.15 K, 101.3 kPa	1.856 mPa·s
308.15 K, 101.33 kPa	1.929 mPa·s and 1.949 mPa·s
313 K, 101.3 kPa	1.62 mPa·s
313.15 K, 101 kPa	1.7 mPa·s and 1.687 mPa·s
313.15 K, 101.3 kPa	1.692 mPa·s and 1.817 mPa·s
318 K, 101.3 kPa	1.456 mPa·s
318.15 K, 100 kPa	1.563 mPa·s
318.15 K, 101.33 kPa	1.487 mPa·s
323 K, 100 kPa	1.215 mPa·s
323 K, 101.3 kPa	1.334 mPa·s
323.15 K, 101 kPa	1.361 mPa·s and 1.329 mPa·s
323.15 K, 101.33 kPa	1.393 mPa·s and 1.393 mPa·s and 1.09 mPa·s

CCn1cc[n+](C)c1.O=C([O-])C(F)(F)C(F)(F)C(F)(F)C(F)(F)F
101 kPa
Conditions	viscosity [mPa·s]
298.15 K	107.5
308.15 K	65.87
318.15 K	43.09

Cc1cccnc1
Conditions	viscosity [mPa·s]
298.15 K, 101 kPa	0.8723

Fc1c(F)c(F)c(F)c(F)c1F
viscosity [mPa·s]
Conditions	293.15 K	298.15 K	303.15 K	308.15 K	313.15 K	318.15 K	323.15 K
101 kPa	0.951	–	0.793	–	0.664	–	0.591
101.33 kPa	0.9446	0.8695	–	0.7631	–	0.6708	–

CCCCCCCCCCCCOC(C)=O
Conditions	viscosity [mPa·s]
303.15 K, 101.3 kPa	3.089

CCCC[n+]1ccc(C)cc1.N#C[S-]
101 kPa
Conditions	viscosity [mPa·s]
298.15 K	85.69
308.15 K	51.75
318.15 K	33.88

CC(=O)[O-].C[N+]1(CC2CO2)CCCC1=O (stereo not drawn)
101 kPa
Conditions	viscosity
293.15 K	6.55 mPa·s
298.15 K	5.55 mPa·s
303.15 K	4.77 mPa·s
308.15 K	4.13 mPa·s and 4.14 mPa·s
313.15 K	3.62 mPa·s

NCCN1CCNCC1
100 kPa
Conditions	viscosity [mPa·s]
298.15 K	14.48
308.15 K	11.34
318.15 K	7.1

CCCCOCCOCCOCCCC
101.3 kPa
Conditions	viscosity [mPa·s]
298.15 K	2.16
308.15 K	1.762
318.15 K	1.408

CCCCCCCCCCCCCC(=O)OCC
100 kPa
Conditions	viscosity [mPa·s]
308.15 K	3.322
318.15 K	2.699
323.15 K	2.451

Oc1cccc2ccccc12 + CCCCCOC(C)=O
Conditions	viscosity [mPa·s]
[1], 298.15 K, 101 kPa, x2 = 0.5	1.549

Oc1cccc2ccccc12 + CCCCO
viscosity [mPa·s], [1], 101 kPa
Conditions	x1 = 0.04	x1 = 0.08	x1 = 0.12	x1 = 0.16	x1 = 0.2
293.15 K	3.278	3.6	3.953	4.407	4.888
303.15 K	2.489	2.719	2.974	3.265	3.61
313.15 K	1.952	2.106	2.289	2.512	2.745
323.15 K	1.56	1.685	1.816	1.966	2.14

CCCCCCCC[N+](C)(CCCCCCCC)CCCCCCCC.[Cl-]
101 kPa
Conditions	viscosity [mPa·s]
298.15 K	2391
303.15 K	1602
308.15 K	1067
313.15 K	766.1
318.15 K	568.9

Cc1cccc(N)c1 + Cc1ccccc1
[1], 303.15 K, 101.33 kPa
Conditions	viscosity [mPa·s]
x1 = 0.168	0.61
x1 = 0.422	0.8
x1 = 0.619	1.05
x1 = 0.801	1.53

CCCCC(=O)O
Conditions	viscosity [mPa·s]
298.15 K, 101 kPa	1.97

Cc1cccc(N)c1 + C1CCCCC1
[1], 303.15 K, 101.33 kPa
Conditions	viscosity [mPa·s]
x1 = 0.2	0.95
x1 = 0.398	1.13
x1 = 0.559	1.35
x1 = 0.786	1.88

CCOC(=O)C(Cl)(Cl)Cl + O=C(O)C(Cl)(Cl)Cl
[1], 323.15 K, 101 kPa
Conditions	viscosity [mPa·s]
x1 = 0.2358	3.172
x1 = 0.4086	2.346
x1 = 0.5988	1.742
x1 = 0.7928	1.334

NCCNCCN
101.33 kPa
Conditions	viscosity [mPa·s]
298.15 K	5.52
308.15 K	3.865
318.15 K	3.048
323.15 K	2.698

Fc1c(F)c(F)c(F)c(F)c1F + CS(C)=O
viscosity [mPa·s], [1], 101 kPa
Conditions	x2 = 0.1003	x2 = 0.2029	x2 = 0.2999	x2 = 0.4	x2 = 0.5001	x2 = 0.5999	x2 = 0.7	x2 = 0.8004	x2 = 0.9
293.15 K	0.991	1.058	1.143	1.246	1.365	1.509	1.661	1.806	1.974
303.15 K	0.833	0.891	0.961	1.05	1.144	1.267	1.386	1.513	1.641
313.15 K	0.703	0.758	0.822	0.904	0.976	1.071	1.171	1.276	1.385
323.15 K	0.62	0.659	0.713	0.775	0.839	0.918	0.993	1.077	1.167

[F-].[K+] + O
[1]
Conditions	viscosity [mPa·s]
298.15 K, 100 kPa, x1 = 0.02	1.005
298.15 K, 100 kPa, x1 = 0.03	1.133
298.15 K, 100 kPa, x1 = 0.07	1.53
298.15 K, 100 kPa, x1 = 0.1	2.16
298.15 K, 100 kPa, x1 = 0.2	3.23
303.15 K, 101 kPa, x1 = 0.002	0.808
303.15 K, 101 kPa, x1 = 0.005	0.828
303.15 K, 101 kPa, x1 = 0.009	0.849
308.15 K, 101 kPa, x1 = 0.002	0.735
308.15 K, 101 kPa, x1 = 0.005	0.754
308.15 K, 101 kPa, x1 = 0.009	0.778
313.15 K, 101 kPa, x1 = 0.005	0.687
313.15 K, 101 kPa, x1 = 0.009	0.709
318.15 K, 101 kPa, x1 = 0.005	0.632
318.15 K, 101 kPa, x1 = 0.009	0.651
323.15 K, 100 kPa, x1 = 0.02	0.5955
323.15 K, 100 kPa, x1 = 0.03	0.7039
323.15 K, 100 kPa, x1 = 0.07	0.9529
323.15 K, 100 kPa, x1 = 0.1	1.35
323.15 K, 100 kPa, x1 = 0.2	2.021
